From patent US6906033B2, “Protease inhibitor peptides” (SCIOS NOVA, Inc., priority 1995, dated 2005)

Assays:
[1] = Acute porcine cardiopulmonary bypass (CPB) model, postoperative bleeding; type: in vivo; conditions: pigs
Description: A randomized, double-blinded study using an acute porcine cardiopulmonary bypass (CPB) model was used to investigate the effect of KPI185-1 on postoperative bleeding. Sixteen pigs (55-65 kg) underwent 60 minutes of hypothermic (28° C.) open-chest CPB with 30 minutes of cardioplegic cardiac arrest. Pigs were randomized against a control solution of physiological saline (NS; n=8) or KPI-185 (n=8) groups. During aortic cross-clamping, the tricuspid valve was inspected through an atriotomy which was subsequently repaired. Following reversal of heparin with protamine, dilateral thoracostomy tubes were placed and shed blood collected for 3 hours. Shed blood volume and hemoglobin (Hgb) loss were calculated from total chest tube output and residual intrathoracic blood at time of sacrifice.

[2] = test system: elastase; conditions: cited from earlier work
[3] = CPB; cited from earlier work
[4] = target: T1, activated factor XII (Homo sapiens, UniProt P00748); conditions: cited from earlier work
T1 sequence (P00748 373-615 limits assumed): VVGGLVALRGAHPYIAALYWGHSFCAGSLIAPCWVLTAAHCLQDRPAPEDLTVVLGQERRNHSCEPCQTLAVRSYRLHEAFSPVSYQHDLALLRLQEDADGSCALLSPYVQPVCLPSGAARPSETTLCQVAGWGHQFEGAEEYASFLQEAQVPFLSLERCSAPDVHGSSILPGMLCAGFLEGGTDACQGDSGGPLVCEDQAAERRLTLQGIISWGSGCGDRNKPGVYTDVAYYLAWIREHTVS

Row | Substance | Total Hgb loss ([1]; after CPB, p=0.0005 vs. saline) [gm] | Thoracostomy drainage Hgb ([1]; at 30 minutes, p=0.004 vs. control) [gm/dl] | Thoracostomy drainage Hgb ([1]; at 60 minutes, p=0.0002 vs. control) [gm/dl] | Total blood loss ([1]; shed blood collected for 3 hours after CPB plus residual intrathoracic blood, p=0.009 vs. saline) [mL] | inhibition of elastase [2] | blood loss following bypass [3] | neutrophil activation [3] | inhibition of activated factor XII [4]
1 | KPI (−4→57; M15A, S17F) DD185: KPI (−4→57) variant with M15A, S17F, found by phage display on kallikrein, expressed in yeast from pDD185 | 13.59±4.26 | 4.41±1.45 | 5.26±1.04 | 245.75 ± 66.24 |  |  |  | 
2 | aprotinin |  |  |  |  | neither native aprotinin nor native KPI significantly inhibits elastase | significant reduction in blood loss | does not appear to significantly reduce neutrophil activation | does not inhibit activated factor XII
